One may read the inhibition as the drop in the measured response relative to a control, in per cent. For orientation: IC50 means the concentration at which inhibition is half-maximal.

Common to all, as to format: biochemical
One assay has as its target T1, Human JAK1 (Homo sapiens, UniProt P23458).
T1 construct: purchased Millipore, Germany
Kind of assay: In-vitro kinase inhibition test, JAK1. The conditions noted are these: for inhibition at 1 µM: compound at 1 uM, read-out: JAK1 kinase-phosphorylation inhibitory level (% inhibition); for JAK1/JAK2: ratio of % inhibition of JAK1 to JAK2 at 1 uM.

Another assay concerns the target T2, Human TYK2 (Homo sapiens, UniProt P29597).
T2 construct: purchased Millipore, Germany
In words: In-vitro kinase inhibition test, TYK2. The following applies: for inhibition at 1 µM: compound at 1 uM, read-out: TYK2 kinase-phosphorylation inhibitory level (% inhibition).

The next assay addresses T3, Human JAK2 (Homo sapiens, UniProt O60674).
T3 construct: purchased Millipore, Germany
Kind of assay: In-vitro kinase inhibition test, JAK2. The conditions noted are these: for inhibition at 1 µM: compound at 1 uM, read-out: JAK2 kinase-phosphorylation inhibitory level (% inhibition).

The next assay addresses T4, Human JAK3 (Homo sapiens, UniProt P52333).
T4 construct: purchased Millipore, Germany
T4 sequence (P52333 1-1124): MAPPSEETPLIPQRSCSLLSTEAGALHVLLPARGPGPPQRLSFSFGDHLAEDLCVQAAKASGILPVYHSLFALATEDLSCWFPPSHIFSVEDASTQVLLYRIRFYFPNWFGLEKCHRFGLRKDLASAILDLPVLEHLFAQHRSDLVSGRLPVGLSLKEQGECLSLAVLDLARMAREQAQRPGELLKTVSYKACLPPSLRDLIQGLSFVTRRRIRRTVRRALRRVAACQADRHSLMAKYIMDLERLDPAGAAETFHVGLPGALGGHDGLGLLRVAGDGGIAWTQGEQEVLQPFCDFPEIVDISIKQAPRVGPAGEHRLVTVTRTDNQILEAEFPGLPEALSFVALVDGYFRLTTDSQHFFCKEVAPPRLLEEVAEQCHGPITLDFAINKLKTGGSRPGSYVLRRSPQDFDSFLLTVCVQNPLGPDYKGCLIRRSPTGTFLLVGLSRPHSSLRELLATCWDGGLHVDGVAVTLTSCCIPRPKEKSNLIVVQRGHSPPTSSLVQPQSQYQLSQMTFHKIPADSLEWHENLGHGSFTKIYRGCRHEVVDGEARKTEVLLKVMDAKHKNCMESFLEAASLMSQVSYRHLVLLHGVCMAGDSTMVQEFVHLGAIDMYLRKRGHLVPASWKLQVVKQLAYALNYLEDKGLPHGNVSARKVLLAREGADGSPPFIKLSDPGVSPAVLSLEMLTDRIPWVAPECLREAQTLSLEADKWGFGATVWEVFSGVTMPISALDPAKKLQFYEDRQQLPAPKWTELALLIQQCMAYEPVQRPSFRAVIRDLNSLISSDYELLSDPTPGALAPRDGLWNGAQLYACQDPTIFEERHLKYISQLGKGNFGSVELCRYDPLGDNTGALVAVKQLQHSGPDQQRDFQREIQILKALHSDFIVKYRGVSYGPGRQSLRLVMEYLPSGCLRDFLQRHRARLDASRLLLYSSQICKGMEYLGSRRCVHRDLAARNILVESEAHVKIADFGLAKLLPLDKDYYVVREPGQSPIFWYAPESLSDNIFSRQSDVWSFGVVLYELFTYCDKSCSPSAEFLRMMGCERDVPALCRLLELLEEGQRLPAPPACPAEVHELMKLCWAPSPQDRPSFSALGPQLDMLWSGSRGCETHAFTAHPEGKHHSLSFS
Kind of assay: In-vitro kinase inhibition test, JAK3. The conditions noted are these: for inhibition at 1 µM: compound at 1 uM, read-out: JAK3 kinase-phosphorylation inhibitory level (% inhibition).

T1 sequence (P23458 whole entry): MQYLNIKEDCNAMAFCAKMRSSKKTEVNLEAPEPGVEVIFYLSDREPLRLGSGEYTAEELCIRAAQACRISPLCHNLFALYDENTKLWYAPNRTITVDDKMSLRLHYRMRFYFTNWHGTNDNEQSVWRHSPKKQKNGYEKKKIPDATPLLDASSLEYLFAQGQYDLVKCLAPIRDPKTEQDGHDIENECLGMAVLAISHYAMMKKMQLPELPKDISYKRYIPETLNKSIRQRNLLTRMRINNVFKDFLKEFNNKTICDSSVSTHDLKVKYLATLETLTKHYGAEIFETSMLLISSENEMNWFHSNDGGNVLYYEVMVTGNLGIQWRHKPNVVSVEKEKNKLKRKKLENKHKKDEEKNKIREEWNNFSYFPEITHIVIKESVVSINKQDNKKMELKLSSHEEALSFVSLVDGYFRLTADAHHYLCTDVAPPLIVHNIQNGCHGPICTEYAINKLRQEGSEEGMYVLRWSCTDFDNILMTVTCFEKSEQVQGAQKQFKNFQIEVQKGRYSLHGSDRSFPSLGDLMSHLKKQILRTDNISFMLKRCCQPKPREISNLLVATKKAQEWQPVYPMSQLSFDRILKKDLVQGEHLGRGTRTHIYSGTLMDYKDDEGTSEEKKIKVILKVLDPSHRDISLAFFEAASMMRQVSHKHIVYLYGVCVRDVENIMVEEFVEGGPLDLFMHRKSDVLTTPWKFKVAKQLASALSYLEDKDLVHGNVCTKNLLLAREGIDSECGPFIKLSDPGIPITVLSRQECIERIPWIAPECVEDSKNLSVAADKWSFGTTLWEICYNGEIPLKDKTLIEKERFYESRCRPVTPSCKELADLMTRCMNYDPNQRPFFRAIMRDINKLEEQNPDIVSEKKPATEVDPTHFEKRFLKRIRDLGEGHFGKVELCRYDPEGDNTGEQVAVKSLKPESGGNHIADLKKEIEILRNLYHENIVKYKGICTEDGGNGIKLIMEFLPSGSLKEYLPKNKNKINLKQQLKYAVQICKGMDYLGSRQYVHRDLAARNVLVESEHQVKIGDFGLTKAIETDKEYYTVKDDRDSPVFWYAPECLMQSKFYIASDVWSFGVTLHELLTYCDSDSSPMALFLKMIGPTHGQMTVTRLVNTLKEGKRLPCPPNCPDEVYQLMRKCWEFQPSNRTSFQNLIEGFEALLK
T3 sequence (O60674 whole entry): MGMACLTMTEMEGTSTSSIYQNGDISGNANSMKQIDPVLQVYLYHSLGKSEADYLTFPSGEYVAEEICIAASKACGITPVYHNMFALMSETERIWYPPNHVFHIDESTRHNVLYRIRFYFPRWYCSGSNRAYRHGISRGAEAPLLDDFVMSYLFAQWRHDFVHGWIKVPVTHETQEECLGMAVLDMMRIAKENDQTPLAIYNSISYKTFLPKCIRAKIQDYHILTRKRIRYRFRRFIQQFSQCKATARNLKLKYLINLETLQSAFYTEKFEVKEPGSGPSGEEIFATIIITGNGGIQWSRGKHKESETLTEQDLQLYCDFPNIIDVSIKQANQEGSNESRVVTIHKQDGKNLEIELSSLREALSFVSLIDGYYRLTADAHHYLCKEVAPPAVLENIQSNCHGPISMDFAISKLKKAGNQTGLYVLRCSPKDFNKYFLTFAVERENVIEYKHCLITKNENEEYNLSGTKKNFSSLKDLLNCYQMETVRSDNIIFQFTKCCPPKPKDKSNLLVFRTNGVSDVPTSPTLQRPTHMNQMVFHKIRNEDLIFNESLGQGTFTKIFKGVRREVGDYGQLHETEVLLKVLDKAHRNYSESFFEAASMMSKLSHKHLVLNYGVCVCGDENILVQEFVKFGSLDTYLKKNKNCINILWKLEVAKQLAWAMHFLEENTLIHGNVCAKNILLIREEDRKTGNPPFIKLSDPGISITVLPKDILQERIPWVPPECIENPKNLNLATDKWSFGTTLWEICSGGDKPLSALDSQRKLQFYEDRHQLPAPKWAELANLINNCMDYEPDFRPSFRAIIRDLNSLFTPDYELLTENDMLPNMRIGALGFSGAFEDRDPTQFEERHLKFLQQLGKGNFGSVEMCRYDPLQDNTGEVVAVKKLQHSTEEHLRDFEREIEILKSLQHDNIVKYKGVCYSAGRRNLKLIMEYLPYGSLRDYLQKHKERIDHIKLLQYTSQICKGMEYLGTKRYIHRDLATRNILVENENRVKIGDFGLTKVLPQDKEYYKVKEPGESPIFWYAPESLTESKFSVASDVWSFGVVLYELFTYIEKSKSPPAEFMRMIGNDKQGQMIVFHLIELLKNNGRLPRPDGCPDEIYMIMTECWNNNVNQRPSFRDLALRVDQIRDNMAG
T2 sequence (P29597 whole entry): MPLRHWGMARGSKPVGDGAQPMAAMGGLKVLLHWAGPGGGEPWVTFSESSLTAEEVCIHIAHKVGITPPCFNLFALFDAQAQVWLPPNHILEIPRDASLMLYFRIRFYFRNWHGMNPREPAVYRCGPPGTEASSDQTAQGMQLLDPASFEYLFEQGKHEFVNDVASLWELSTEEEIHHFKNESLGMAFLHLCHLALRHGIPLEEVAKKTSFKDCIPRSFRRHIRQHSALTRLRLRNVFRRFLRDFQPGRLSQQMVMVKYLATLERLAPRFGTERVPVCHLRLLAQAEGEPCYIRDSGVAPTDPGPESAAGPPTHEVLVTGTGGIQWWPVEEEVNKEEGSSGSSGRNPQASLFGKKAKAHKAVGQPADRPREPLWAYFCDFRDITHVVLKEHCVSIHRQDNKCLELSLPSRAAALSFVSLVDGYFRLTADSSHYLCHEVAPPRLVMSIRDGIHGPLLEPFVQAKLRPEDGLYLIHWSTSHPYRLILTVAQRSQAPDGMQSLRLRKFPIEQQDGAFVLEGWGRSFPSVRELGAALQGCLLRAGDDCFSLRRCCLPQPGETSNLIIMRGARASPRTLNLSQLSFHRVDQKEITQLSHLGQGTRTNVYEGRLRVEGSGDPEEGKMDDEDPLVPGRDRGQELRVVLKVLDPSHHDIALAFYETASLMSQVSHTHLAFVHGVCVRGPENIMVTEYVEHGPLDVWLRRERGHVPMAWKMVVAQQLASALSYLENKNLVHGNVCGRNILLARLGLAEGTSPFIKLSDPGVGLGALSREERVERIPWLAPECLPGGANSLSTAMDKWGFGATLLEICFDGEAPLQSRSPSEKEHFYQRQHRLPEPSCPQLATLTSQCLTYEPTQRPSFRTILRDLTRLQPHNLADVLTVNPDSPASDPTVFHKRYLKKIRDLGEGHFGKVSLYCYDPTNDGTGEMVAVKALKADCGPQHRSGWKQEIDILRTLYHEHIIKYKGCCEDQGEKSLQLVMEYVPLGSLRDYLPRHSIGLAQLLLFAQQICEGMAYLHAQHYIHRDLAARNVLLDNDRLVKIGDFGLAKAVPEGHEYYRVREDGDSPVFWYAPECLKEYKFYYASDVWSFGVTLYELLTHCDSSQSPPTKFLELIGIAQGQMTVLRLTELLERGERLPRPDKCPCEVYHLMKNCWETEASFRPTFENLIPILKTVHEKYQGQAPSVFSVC
Experimental for Human JAK2: (§1) Human-derived JAK1, JAK2, JAK3 and TYK2 (Millipore, Germany) were used as kinases. Each kinase was diluted with an appropriate buffer as described below, and then mixed with reaction reagents.
(§2) 3-morpholinopropane-1-sulfonic acid (MOPS) and EDTA were dissolved in deionized water at a concentration of 20 mM and 1 mM, respectively, and then 100 μL of β-mercaptoethanol, 10 μL of Brij-35™, 5 mL of glycerol, and 100 mg of bovine serum albumin (BSA), each per 100 mL of the solution, were added to the solution, thereby preparing a dilution buffer for JAK2, JAK3, and TYK2.
(§3) Each compound was dissolved in a 100%-DMSO solution at a concentration of about 50 μM. This prepared solution was reacted with reaction reagents in each well of a 96-well plate until a final concentration of the compound reached 1 μM. A detailed experimental method for each kinase is as follows.
(§4) After reaction for about 40 minutes at room temperature, the reaction was stopped by adding 5 uL of a 3% (v/v) phosphoric acid solution.
(§5) The inhibitory levels (% inhibition) represent a percentage of reduction in phosphorylation activity in each test group with respect to the phosphorylation activity of a corresponding kinase in a negative control group lacking any of the compounds synthesized in the examples. % inhibition=[(Scintillation value of Test compound non-treatment group−Scintillation value of Test compound treatment group)/(Scintillation value of Test compound non-treatment group)]×100
Experimental for Human TYK2: as §1, §2, §3, §4, §5

For the compound `CN(c1ncnc2[nH]ccc12)[C@H]1CN(C(=O)CC#N)CC1(C)C` [Example 43, (R)-3-(3,3-dimethyl-4-(methyl(7H-pyrrolo[2,3-d]pyrimidine-4-yl)amino)pyrrolidine-1-yl)-3-oxopropanenitrile], the inhibition at 1 µM at Human JAK1 worked out at 86%; at Human TYK2, 38%; at Human JAK2, 19%; on Human JAK3, 36%. The JAK1/JAK2 on Human JAK1 is reported as 4.53.
In the same order, the values of `CN(c1ncnc2[nH]ccc12)[C@@H]1CCCN(C(=O)CC#N)C1` [Example 40, (R)-3-(3-(methyl(7H-pyrrolo[2,3-d]pyrimidine-4-yl)amino)piperidine-1-yl)-3-oxopropanenitrile] are 99%, 93%, 83%, 81% and 1.19.
In the same order, the values of `CN(c1ncnc2[nH]ccc12)[C@@H]1CCCN(S(=O)(=O)c2cccc(C#N)c2)C1` [Example 41, (R)-3-((3-(methyl(7H-pyrrolo[2,3-d]pyrimidine-4-yl)amino)piperidine-1-yl)sulfonyl)benzonitrile] are 92%, 79%, 64%, 39% and 1.44.
In the same order, the values of `CN(c1ncnc2[nH]ccc12)[C@@H]1CCN(S(=O)(=O)c2cccc(F)c2)C1` [Example 16, (R)—N-(1-((3-fluorophenyl)sulfonyl)pyrrolidine-3-yl)-N-methyl-7H-pyrrolo[2,3-d]pyrimidine-4-amine] are 98%, 98%, 93%, 47% and 1.05.
Take `N#CCC(=O)N1CC[C@@H](N(CC2CC2)c2ncnc3[nH]ccc23)C1` [Example 35, (R)-3-(3-((cyclopropylmethyl)(7H-pyrrolo[2,3-d]pyrimidine-4-yl)amino)pyrrolidine-1-yl)-3-oxopropanenitrile]: the inhibition at 1 µM at Human JAK1 was determined as 88%; on Human TYK2, 37%; at Human JAK2, 34%; on Human JAK3, 14%. The JAK1/JAK2 at Human JAK1 was determined as 2.59.
In the same order, the values of `CN(c1ncnc2[nH]ccc12)[C@@H]1CCN(S(=O)(=O)N2CCCCC2)C1` [Example 29, (R)—N-methyl-N-(1-(piperidine-1-ylsulfonyl)pyrrolidine-3-yl)-7H-pyrrolo[2,3-d]pyrimidine-4-amine] are 91%, 65%, 21%, 10% and 4.33.
The corresponding values for `Cc1ccc(S(=O)(=O)N2CC[C@@H](N(C)c3ncnc4[nH]ccc34)C2)cc1` [Example 25, (R)—N-methyl-N-(1-tosylpyrrolidine-3-yl)-7H-pyrrolo[2,3-d]pyrimidine-4-amine] are 97%, 68%, 42%, 10% and 2.31.
The corresponding values for `CN(c1ncnc2[nH]ccc12)[C@@H]1CCN(S(=O)(=O)c2cn(C)cn2)C1` [Example 13, (R)—N-methyl-N-(1-((1-methyl-1H-imidazole-4-yl)sulfonyl)pyrrolidine-3-yl)-7H-pyrrolo[2,3-d]pyrimidine-4-amine] are 52%, 17%, 9%, 4% and 5.78.
`N#Cc1cccc(S(=O)(=O)N2CCCC(COc3ncnc4[nH]ccc34)C2)c1` (stereo not shown) [Example 48, 3-((3-(((7H-pyrrolo[2,3-d]pyrimidine-4-yl)oxy)methyl)piperidine-1-yl)sulfonyl)benzonitrile]: the inhibition at 1 µM at Human JAK1 came to 25%; on Human TYK2, 7%; at Human JAK2 it was 17%; on Human JAK3, 19%. In addition, at Human JAK1, the JAK1/JAK2 was 1.47.
`CN(c1ncnc2[nH]ccc12)C1CCN(S(=O)(=O)c2ccccc2)CC1` [Example 38, N-methyl-N-(1-(phenylsulfonyl)piperidine-4-yl)-7H-pyrrolo[2,3-d]pyrimidine-4-amine]: the IC50 on Human JAK1 is 4.2 nM; on Human TYK2, 18.8 nM; at Human JAK2, 19 nM; on Human JAK3, 147 nM. For the same compound, the inhibition at 1 µM at Human JAK1 amounted to 97%; on Human TYK2, 97%; at Human JAK2 it was 94%; on Human JAK3 it was 77%. The JAK1/JAK2 at Human JAK1 is listed as 1.03.
Regarding `CN(c1ncnc2[nH]ccc12)[C@@H]1CCN(S(=O)(=O)c2ccc([N+](=O)[O-])cc2)C1` [Example 23, (R)—N-methyl-N-(1-((4-nitrophenyl)sulfonyl)pyrrolidine-3-yl)-7H-pyrrolo[2,3-d]pyrimidine-4-amine], the inhibition at 1 µM came out at 100% at Human JAK1, 94% on Human TYK2, 84% at Human JAK2 and 31% at Human JAK3. The JAK1/JAK2 on Human JAK1 turned out to be 1.19.
The corresponding values for `N#CCC(=O)N1CCCC(COc2ncnc3[nH]ccc23)C1` (stereo not shown) [Example 47, 3-(3-(((7H-pyrrolo[2,3-d]pyrimidine-4-yl)oxy)methyl)piperidine-1-yl)-3-oxopropanenitrile] are 30%, 20%, 10%, 16% and 3.00.
Take `N#Cc1cccc(S(=O)(=O)N2CC[C@@H](Nc3ncnc4[nH]ccc34)C2)c1` [Example 32, (R)-3-((3-((7H-pyrrolo[2,3-d]pyrimidine-4-yl)amino)pyrrolidine-1-yl)sulfonyl)benzonitrile]: the inhibition at 1 µM on Human JAK1 was found to be 67%; on Human TYK2, 30%; at Human JAK2, 29%; on Human JAK3 it was 3%. In addition, the JAK1/JAK2 at Human JAK1 is 2.31.
In the same order, the values of `COc1ccc(S(=O)(=O)N2CC[C@@H](N(C)c3ncnc4[nH]ccc34)C2)cc1` [Example 26, (R)—N-(1-((4-methoxyphenyl)sulfonyl)pyrrolidine-3-yl)-N-methyl-7H-pyrrolo[2,3-d]pyrimidine-4-amine] are 98%, 71%, 44%, 10% and 2.23.
In the same order, the values of `N#CCC(=O)N1CCC(Oc2ncnc3[nH]ccc23)CC1` [Example 45, 3-(4-((7H-pyrrolo[2,3-d]pyrimidine-4-yl)oxy)piperidine-1-yl)-3-oxopropanenitrile] are 35%, 10%, 5%, 14% and 7.00.
On to `CN(c1ncnc2[nH]ccc12)[C@H]1CCN(C(=O)CC#N)C1` [Example 31, (S)-3-(3-(methyl(7H-pyrrolo[2,3-d]pyrimidine-4-yl)amino)pyrrolidine-1-yl)-3-oxopropanenitrile], for which the values for the inhibition at 1 µM on Human JAK1, at Human JAK2 and on Human JAK3 were 23%, -6% and 27%, respectively.
In the same order, the values of `CN(c1ncnc2[nH]ccc12)[C@@H]1CCN(C(=O)CC#N)C1` [Example 1, (R)-3-(3-(methyl(7H-pyrrolo[2,3-d]pyrimidine-4-yl)amino)pyrrolidine-1-yl)-3-oxopropanenitrile] are 97%, 70% and 20%.

Values taken from patent publication US10407430B2, “Janus kinase 1 selective inhibitor and pharmaceutical use thereof” (YANG JI CHEMICAL CO., LTD., priority 2015, dated 2019).
